Assay results as given in US20160193251A1, “METHOD FOR TREATING ALS VIA THE INCREASED PRODUCTION OF FACTOR H” (BioViva USA Inc., priority 2013, published 2016).

Tests used:
stem cells from fat = assay: Reprogramming of harvested adipose stem cells by drug treatment; assay type: cell-based; settings: harvested stem cells treated with the drug
Excerpt: Embodiments of the present invention include performing adult adipose derived stem cell therapy to treat patients with ALS. Amyelotrophic Lateral Sclerosis (ALS) is a fatal disease with no treatment options. Since ALS is a neurological disorder, it was believed that patients would need neural stem cells, not the mesenchymal type stem cells that we have obtained from harvested adipose tissue. But, because neural stem cells are difficult to attain for various physiological and regulatory reasons, a new technical approach that targets the conversion or reprogramming of mesenchymal type stem cells that are obtained from adipose tissue recovered from the same patient to be treated has been generated.
An examplary stem cell therapy involves the use of adipose derived stem cells, which are then incubated with Selegeline, which results in preinduction into motor neurons. Initially, adipose tissue or fat is harvested via a minimally invasive liposuction. Then the fat is processed to separate the vascular stromal fraction of stem cells. […] Once processed, the majority of stem cells are administered into the spine (spinal fluid) via a lumbar puncture. A small dilute fraction of cells are injected into a select muscle group. […] The techniques allowing for culturing of stem cells and the reintroduction will help increase stem cell numbers. […]

ALS mouse model = settings: cited from earlier work
[1] = previous studies; cited from earlier work
SOD1 rats = settings: ex vivo gene delivery within muscles, midstages of the disease; cited from earlier work

C#CCN(C)[C@H](C)Cc1ccccc1 [Selegeline]
reprogramming of stem cells (stem cells from fat): able to reprogram the stem cells from fat into neural like cells

IGF-1: Insulin like growth factor 1
progression (ALS mouse model): delayed progression
survival (ALS mouse model): increased survival

B1: CNTF: a neurotrophic factor that is protective of neurons (protein, UniProt P26441 1-200, looked up)
Ciliary neurotrophic factor: MAFTEHSPLTPHRRDLCSRSIWLARKIRSDLTALTESYVKHQGLNKNINLDSADGMPVASTDQWSELTEAERLQENLQAYRTFHVLLARLLEDQQVHFTPTEGDFHQAIHTLLLQVAAFAYQIEELMILLEYKIPRNEADGMPINVGDGGLFEKKLWGLKVLQELSQWTVRSIHDLRFISSHQTGIPARGSHYIANNKKM
half life [1]: 2.9 min

B2: GDNF: Glial derived neurotrophic factor; in b58 given by ex vivo gene delivery within muscles (protein, UniProt P39905 78-211, looked up)
Glial cell line-derived …: SPDKQMAVLPRRERNRQAAAANPENSRGKGRRGQRGKNRGCVLTAIHLNVTDLGLGYETKEELIFRYCSGSCDAAETTYDKILKNLSRNRRLVSDKVGQACCRPIAFDDDLSFLDDNLVYHILRKHSAKRCGCI
number of neuromuscular connections and MN cell bodies (SOD1 rats): significantly increased the number of neuromuscular connections
number of neuromuscular connections and motor neuron cell bodies (ALS mouse model): increased the number of neuromuscular connections and motor neuron cell bodies
